Series [1] has as its system WM115 cells. The series is described as follows: Cell adhesion assay on vitronectin, αVβ3-positive cells. The series is classed as cell-based. As to conditions: adhesion of WM115 cells to vitronectin. As to the method:
WM115 cells were cultivated and used in the MEM Eagle medium (Pan Biotech P04-08500 with 10% fetal bovine serum, 50 μg/ml gentamycin, and 0.5 mM sodium pyruvate) and M21-L cells in the RPMI medium (Pan Biotech P04-16500 with 10% fetal bovine serum, 1% Pen-Strep). A flat-bottom MaxiSorp Nunc 96-well plate was coated with recombinant human vitronectin (100 µl/well, 1 μg/ml, Peprotech) in the PBS buffer (137 mM NaCl, 2.7 mM KCl, 10 mM Na2HPO4, 2 mM KH2PO4, pH 7.4) at 4°C and blocked at the following day by adding a solution of fatty acid free milk powder in PBS buffer (5 w/v %, 100 µl/well) at 4°C. The WM115 and M21-L cells were washed with the PBS buffer, detached with Accutase solution (5 ml, Pan Biotech P10-21100) at 37°C for 5 min, and then diluted with the medium (15 ml). After centrifugation (850 rpm, 6 min), the resulting cell pellet was resuspended with fluorescein diacetate in the medium (fluorescein diacetate 1.5 mg/ml, cell density 5·× 10^5 cells/ml) and incubated for 30 min at 37°C in the dark. The cells were washed twice with the medium and then resuspended in the medium (cell density 5 × 10^5 cells/ml). Afterward, a solution of CaCl2, MnCl2, and MgCl2 (each 100 mM) in the PBS buffer (90 µl) was transferred to the cells and incubated for 30 min on ice in the dark. In the meantime, a dilution series of the compounds in the medium (1:3 dilution) was prepared, and 240 µl were transferred to Eppendorf tubes. Pure medium was used as a positive control. Cell suspension (240 µl) was added to each tube of the dilution series and the control, followed by incubation at 37°C for 30 min in the dark. The assay plate was discharged and washed with 200 µl/well medium. […] Afterward, the assay plate was washed with the medium (3 × 100 µl/well), and finally, the medium (100 µl/well) was added and the fluorescence was measured with a TecanReader (Excitation: 480 nm; Emission: 520 nm). The determined values were plotted and analyzed using OriginPro® 2020b where the inflection point of a DoseResp fit described the IC50 value. […]

The test system of series [2] is M21-L cells. The series can be described thus: Cell adhesion assay on vitronectin, αVβ3-negative cells. The series is classed as cell-based. The settings on record: for IC50: adhesion of M21-L cells to vitronectin, read-out: M21-L (αV−, αVβ3−) IC50, cell adhesion. Here is the method:
WM115 cells were cultivated and used in the MEM Eagle medium (Pan Biotech P04-08500 with 10% fetal bovine serum, 50 μg/ml gentamycin, and 0.5 mM sodium pyruvate) and M21-L cells in the RPMI medium (Pan Biotech P04-16500 with 10% fetal bovine serum, 1% Pen-Strep). A flat-bottom MaxiSorp Nunc 96-well plate was coated with recombinant human vitronectin (100 µl/well, 1 μg/ml, Peprotech) in the PBS buffer (137 mM NaCl, 2.7 mM KCl, 10 mM Na2HPO4, 2 mM KH2PO4, pH 7.4) at 4°C and blocked at the following day by adding a solution of fatty acid free milk powder in PBS buffer (5 w/v %, 100 µl/well) at 4°C. The WM115 and M21-L cells were washed with the PBS buffer, detached with Accutase solution (5 ml, Pan Biotech P10-21100) at 37°C for 5 min, and then diluted with the medium (15 ml). After centrifugation (850 rpm, 6 min), the resulting cell pellet was resuspended with fluorescein diacetate in the medium (fluorescein diacetate 1.5 mg/ml, cell density 5·× 10^5 cells/ml) and incubated for 30 min at 37°C in the dark. The cells were washed twice with the medium and then resuspended in the medium (cell density 5 × 10^5 cells/ml). Afterward, a solution of CaCl2, MnCl2, and MgCl2 (each 100 mM) in the PBS buffer (90 µl) was transferred to the cells and incubated for 30 min on ice in the dark. In the meantime, a dilution series of the compounds in the medium (1:3 dilution) was prepared, and 240 µl were transferred to Eppendorf tubes. Pure medium was used as a positive control. Cell suspension (240 µl) was added to each tube of the dilution series and the control, followed by incubation at 37°C for 30 min in the dark. The assay plate was discharged and washed with 200 µl/well medium. Then the cell suspension with different compound concentrations was added to the assay plate (100 µl/well) and incubated for 60 min at 37°C in the dark. Afterward, the assay plate was washed with the medium (3 × 100 µl/well), and finally, the medium (100 µl/well) was added and the fluorescence was measured with a TecanReader (Excitation: 480 nm; Emission: 520 nm). The determined values were plotted and analyzed using OriginPro® 2020b where the inflection point of a DoseResp fit described the IC50 value.
WM115 cells were cultivated and used in MEM Eagle medium (Pan Biotech P04-08500 with 10 % foetal bovine serum, 50 µg/mL gentamycin, 0.5 mM sodium pyruvate) and M21-L cells in RPMI medium (Pan Biotech P04-16500 with 10 % foetal bovine serum, 1 % Pen-Strep). Overnight a flat-bottom MaxiSorp Nunc 96-well plate was coated with recombinant human vitronectin (100 µL/well, 1 µg/mL, Peprotech) in PBS buffer (137 mM NaCl, 2.7 mM KCl, 10 mM Na2HPO4,2 mM KH2PO4, pH 7.4) at 4 °C and blocked at the following day by adding a solution of fatty acid free milk powder in PBS buffer (5 w/v %, 100 µL/well) at 4 °C. […]

Series [3] relates to WM115 cells. The series is described as follows: Cell viability assay (resazurin based). The settings on record: for IC50: 3 days incubation, resazurin, read-out: Cytotoxicity IC50; for fold less cytotoxic than MMAE: relative to free MMAE. As to the method: (§1) WM115 cells were cultivated in the MEM medium (with 10% fetal bovine serum, 50 μg/ml gentamycin, and 0.5 mM sodium pyruvate) at 37°C and 5.3% CO2-humidified air in an incubator. The cells were seeded in a sterile flat-bottom cell culture 96-well plate (Sarstedt) in a density of 10,000 cells/well (100 µl/well) and incubated for 1 day as described. A serial dilution (1:3 dilution) of the compounds and the standard (cryptophycin-52) in the medium was prepared and transferred to the assay plate (100 µl/well), followed by incubation for 3 days as described. Afterward, a solution of resazurin (175 μM, 30 µl/well) was added, followed by incubation for 6 h. Subsequently, the fluorescence was measured with a TecanReader (Excitation: 530 nm; Emission: 588 nm) and plotted and analyzed using OriginPro® 2020b where the inflection point of a DoseResp fit described the IC50 value. […]
(§2) WM115 cells were cultivated in MEM medium (with 10 % foetal bovine serum, 50 µg/mL gentamycin, 0.5 mM sodium pyruvate) at 37 °C and 5.3 % CO2-humidified air in an incubator. The cells were seeded in a sterile flat-bottom cell culture 96-well plate (Sarstedt) in a density of 10000 cells/well (100 µL/well) and incubated for 1 day as described. A dilution series (1:3 dilution) of the compounds and the standard (cryptophycin-52) in medium was prepared and transferred to the assay plate (100 µL/well) followed by incubation for 3 d as described. Afterwards a solution of resazurin (175 µM, 30 µL/well) was added followed by incubation for 6 h. Subsequently, the fluorescence was measured with a TecanReader (Excitation: 530 nm; Emission: 588 nm) as well as plotted and analysed using OriginPro® 2020b where the inflection point of a DoseResp fit describes the IC50 value.

A short description of series [4]: Cell viability assay (resazurin based). The settings on record: WM115 cells, 3 days incubation, resazurin; read-out: Cytotoxicity IC50. Here is the method:
as §1, §2
A general note: Alamar Blue is a resazurin reagent that responds to reducing activity.

SMILES strings stand for the structures. Numbered stars: 1 amine (or outer) side, 2 acyl side, 3 side chain; on linkers, the order of the positions; unused ones are H or OH. Bridge positions count the residues as written; N and C are the ends. Square brackets hold non-standard residues; d marks the D form. Peptide text beside a SMILES is read from it. I, II: the chains in the order shown. * marks the point of attachment. Dolaproine = CO[C@@H]([C@@H]1CCCN1)[C@@H](C)C(=O)O; Dil = CC[C@H](C)[C@H](NC)[C@@H](CC(=O)O)OC; X1 = O=C(CCCc1cn(CCOCCOCCN[*:1])nn1)[*:2]; PABC = O=C(OCc1ccc(N[*:1])cc1)[*:2]; X2 = C[C@@H](N*)[C@@H](O)c1ccccc1; Suc = O=C(CCC(=O)[*:2])[*:1]; NMeV = CN[C@H](C(=O)O)C(C)C

What is called IC50 is the concentration that inhibits the measured activity by half. Regarding `CC[C@H](C)[C@@H]([C@@H](CC(=O)N1CCC[C@H]1[C@H](OC)[C@@H](C)C(=O)N[C@H](C)[C@@H](O)c1ccccc1)OC)N(C)C(=O)[C@@H](NC(=O)[C@H](C(C)C)N(C)C(=O)OCc1ccc(NC(=O)[C@H](C)NC(=O)[C@@H](NC(=O)[C@H](CCC(=O)O)NC(=O)CCCc2cn(CCOCCOCCNC(=O)CCC(=O)NCCCC[C@@H]3NC(=O)[C@@H](Cc4ccccc4)NC(=O)[C@H](CC(=O)O)NC(=O)CNC(=O)[C@H](CCCNC(=N)N)NC3=O)nn2)C(C)C)cc1)C(C)C` [compound 16], the IC50 was 2650 ± 350 nM in series [1], above 100000 nM in series [2] and 91.4 ± 12.3 nM in series [3]. Further, the “fold less cytotoxic than MMAE” value in series [3] is “about 50 fold”.
For `CC[C@H](C)[C@@H]([C@@H](CC(=O)N1CCC[C@H]1[C@H](OC)[C@@H](C)C(=O)N[C@H](C)[C@@H](O)c1ccccc1)OC)N(C)C(=O)[C@@H](NC(=O)[C@H](C(C)C)N(C)C(=O)OCc1ccc(NC(=O)[C@H](C)NC(=O)[C@@H](NC(=O)[C@H](CCC(=O)O)NC(=O)CCCc2cn(CCOCCOCCNC(=O)CCC(=O)NCCCC[C@@H]3NC(=O)[C@@H](Cc4ccccc4)NC(=O)[C@H](CC(=O)O)NC(=O)[C@H](C)NC(=O)[C@H](CCCNC(=N)N)NC3=O)nn2)C(C)C)cc1)C(C)C` [compound 17] (I: [X1]EVA[PABC][NMeV]V[Dil][Dolaproine]-X2 / II: cyclo(AD[dF]KR); linker I:N-II:4 via Suc), the IC50 in series [1] is 79100 ± 1690 nM; in series [2], above 100000 nM; in series [3], 264 ± 24.6 nM. In addition, the “fold less cytotoxic than MMAE” value in series [3] is 150 fold.
`CC[C@H](C)[C@@H]([C@@H](CC(=O)N1CCC[C@H]1[C@H](OC)[C@@H](C)C(=O)N[C@H](C)[C@@H](O)c1ccccc1)OC)N(C)C(=O)[C@@H](NC(=O)[C@H](C(C)C)N(C)C(=O)OCc1ccc(NC(=O)[C@H](C)NC(=O)[C@@H](NC(=O)[C@H](CCC(=O)O)NC(=O)CCCc2cn(CCOCCOCCOc3ccc(C(=O)N[C@@H](Cc4ccc(OCCCCCNC5=NCCN5)cc4)C(=O)O)cc3)nn2)C(C)C)cc1)C(C)C` [compound 18]: the IC50 in series [1] is 8050 ± 510 nM; in series [2], above 100000 nM; in series [4], 95 ± 25 nM. The “effect on cell adhesion of αVβ3-negative cells” value in series [2] (M21-L cell line, adhesion to vitronectin) was “no effect”. Further, in series [3] (TI = [IC50 (17)]/[IC50 (compound)]), the “TI (RAD/RGD), targeting index” value is listed as 2.8. Further, the “fold less cytotoxic than MMAE” value in series [3] was “about 50 fold”.

(Values after PMC9035832, “Synthesis and Evaluation of a Non-Peptide Small-Molecule Drug Conjugate Targeting Integrin αVβ3” (Frontiers in Chemistry, 2022).)
